Measured values published in US11607417B2, “Uses of celastrol in preventing and/or treating cholestatic liver disease and liver fibrosis” (KUNMING INSTITUTE OF BOTANY, THE CHINESE ACADEMY OF SCIENCES, priority 2017, dated 2023).

What was measured:
[1] = tested on: TAA-induced cholestatic liver injury under SIRT1 inhibition; experiment: Effect of SIRT1 inhibition (EX527) on celastrol activity in TAA model (Example 4); assay type: in vivo, C57BL/6 mice; conditions: TAA model
Protocol: A total of 24 male C57BL/6 mice were divided into four groups: blank group (n=6);
model group (n=6); treatment group (n=6); EX527 group (n=6).
Celastrol was dissolved in a solvent to obtain a solution of celastrol at a concentration of 2 mg/mL, wherein the solvent consisted of 1% DMSO, 2% Tween, and 97% water (v:v:v). For intragastrical administration, the dosage of celastrol was 10 mg/kg·d. TAA was dissolved in 0.9% NaCl solution to prepare a NaCl solution of TAA at a concentration of 60 mg/mL, and the dosage of TAA for intraperitoneal administration was 300 mg/kg. EX527 was dissolved in corn oil to prepare a corn oil solution of EX527 at a concentration of 2 mg/mL, and the dosage of EX527 for intraperitoneal administration was 10 mg/kg. d.
(§1) The EX527 group was simultaneously administered with the celastrol solution and the EX527 corn oil solution for 4 consecutive days. The treatment group was administrated with the celastrol solution and an equal dosage of corn oil for 4 consecutive days. At the same time, the blank group and the model group were administrated with equal dosages of solvent (1% DMSO, 2% Tween 80 and 97% water (v:v:v)) and corn oil, and the solvent was administrated for 4 consecutive days.
On the 4th day, the establishment of TAA model was performed. 1 Hour after administration, the mice in the model group, the treatment group and the EX527 group were intraperitoneally injected with TAA at a dosage of 300 mg/kg to induce cholestatic liver injury. 24 Hours after administration with TAA, the mice were sacrificed by CO2 anesthesia, and plasma samples and liver samples were collected. The eyeballs of the mice were taken for blood collection. The plasma samples were placed on ice for 1-2 hours, centrifuged at 4000 g for 5 minutes at 4° C., and the supernatants of plasma samples were taken to determine the plasma biochemical indicators, the levels of ALT, AST, and ALP.
At the same time, plasma samples were prepared: 10 μL of plasma sample was mixed with 190 μL of 67% acetonitrile (containing 5 μM internal standard chlorpropamide), centrifuged at 18000 g for 20 minutes at 4° C., and the supernatant was taken for sample injection. The liquid chromatography conditions were as follows: the volume of injection was 5 μL; the temperature of column was 45° C.; the flow rate of mobile phase was 0.3 mL/min; the gradient elution was that acetonitrile concentration changed from 2% to 98% during 16 minutes of operation, wherein the mobile phase (water/acetonitrile solution) contained 0.01% formic acid. The elution procedure was as follows: during 0-12th minute, the acetonitrile concentration changed from 2% to 98% at a constant rate; during 12-14th minute, the acetonitrile concentration was maintained at 98%; during 14-14.1th minute, the acetonitrile concentration changed from 98% to 2%; during 14.1-16th minute, the acetonitrile concentration was maintained at 2%. Mass spectrometry conditions were as follows: the temperature of dry gas was 350° C., the pressure of nebulizer was 35 psi, and the voltage of capillary was 3.5 kV.
Part of the collected mouse liver tissue was fixed overnight in formalin, and tissue sections were stained with hematoxylin and eosin (H&E).

[2] = tested on: ANIT-induced cholestatic liver injury under SIRT1 inhibition; experiment: Effect of SIRT1 inhibition (EX527) on celastrol activity in ANIT model (Example 3); assay type: in vivo, C57BL/6 mice
Protocol: A total of 24 male C57BL/6 mice were divided into four groups: blank group (n=6); model group (n=6); treatment group (n=6); and EX527 group (n=6).
Celastrol was dissolved in a solvent to obtain a celastrol solution at a concentration of 2 mg/mL, wherein the solvent consisted of 1% DMSO, 2% Tween 80, and 97% water (v:v:v). For intragastrical administration, the dosage of celastrol was 10 mg/kg·d. ANIT was dissolved in corn oil to obtain a corn oil solution of ANIT at a concentration of 15 mg/mL, and the dosage of ANIT for intragastrical administration was 75 mg/kg. EX527 was dissolved in corn oil to obtain a corn oil solution of EX527 at a concentration of 2 mg/mL, and the dosage of EX527 for intraperitoneal injection was 10 mg/kg·d.
as §1, with “administrated” for “administered”, “5” for “4”
On the 3rd day of administration, ANIT model was established. 4 Hours after administration, the mice in the model group, the treatment group and the EX527 group were respectively intraperitoneally injected with the ANIT corn oil solution at a dosage of 75 mg/kg for single administration to induce cholestatic liver injury, and the blank group was fed with an equal dosage of corn oil. After the model was established on the 3rd day of administration, the treatment group was continuously administrated with celastrol, the EX527 group was continuously administrated with celastrol and EX527, and the blank group and the model group were continuously administrated with the same dosage of solvent. 48 Hours after administration with ANIT, the mice were sacrificed by CO2 anesthesia, and mouse liver samples and plasma samples were taken. The eyeballs of the mice were taken for blood collection. The plasma samples were placed on ice for 1-2 hours, centrifuged at 4000 g for 5 minutes at 4° C., and the supernatants of the plasma samples were taken to determine plasma biochemical indicators, the levels of ALT, AST and ALP.
At the same time, plasma samples were prepared: 10 μL of plasma sample was taken, mixed well with 190 μL of 67% acetonitrile (containing 5 μM internal standard chlorpropamide), centrifuged at 18000 g for 20 minutes at 4° C., and the supernatant was taken for sample injection. The liquid chromatography conditions were as follows: the injection volume was 5 μL; the temperature of column was 45° C.; the flow rate of mobile phase was 0.3 mL/min; the gradient elution was that acetonitrile concentration changed from 2% to 98% during 16 minutes of operation, wherein the mobile phase (water/acetonitrile solution) contained 0.01% formic acid. The elution procedure was as follows: during 0-12th minute, the acetonitrile concentration changed from 2% to 98% at a constant rate; during 12-14th minute, the acetonitrile concentration was maintained at 98%; during 14-14.1th minute, the acetonitrile concentration changed from 98% to 2%; during 14.1-16th minute, the acetonitrile concentration was maintained at 2%. Mass spectrometry conditions were as follows: the temperature of dry gas was 350° C., the pressure of nebulizer was 35 psi, and the voltage of capillary was 3.5 kV.
Part of the collected mouse liver tissue was fixed overnight in formalin and tissue sections were stained with hematoxylin and eosin (H&E).

[3] = EX527 group: celastrol 10 mg/kg·d + EX527 10 mg/kg·d i.p., P<0.001, FIG. 4E
[4] = EX527 group: celastrol 10 mg/kg·d + EX527 10 mg/kg·d i.p., P<0.05, FIG. 3E

NC(=O)C1CCCc2c1[nH]c1ccc(Cl)cc21 (centres unmarked) [EX527, reference compound]
Levels of bile acids in plasma vs treatment group ([1]; DCA, TβMCA/TαMCA, TCA and TDCA, EX527 group: celastrol + EX527 10 mg/kg·d i.p., P<0.05, FIG. 4F): significantly higher | H&E staining of mouse liver tissue ([1]; EX527 group: celastrol 10 mg/kg·d + EX527 10 mg/kg·d i.p., FIG. 4D): a severe necrosis of liver cells also occurred | ALT level in plasma vs treatment group [1, 3]: significantly higher | AST level in plasma vs treatment group [1, 3]: significantly higher | Levels of bile acids in plasma vs treatment group ([2]; CA, TβMCA/TαMCA and THDCA/TUDCA, EX527 group: celastrol + EX527 10 mg/kg·d i.p., P<0.05, FIG. 3F): significantly higher | H&E staining of mouse liver tissue ([2]; EX527 group: celastrol 10 mg/kg·d + EX527 10 mg/kg·d i.p., FIG. 3D): a severe inflammatory infiltration and a periportal hemorrhage also occurred | ALT level in plasma vs treatment group [2, 4]: significantly higher | AST level in plasma vs treatment group [2, 4]: significantly higher
